In PMC12070378 (Microbial Biotechnology, 2025):

Biological target: T1, Sortase A (SrtA) (Staphylococcus aureus, UniProt Q2FV99)
T1 sequence (Q2FV99 60-206): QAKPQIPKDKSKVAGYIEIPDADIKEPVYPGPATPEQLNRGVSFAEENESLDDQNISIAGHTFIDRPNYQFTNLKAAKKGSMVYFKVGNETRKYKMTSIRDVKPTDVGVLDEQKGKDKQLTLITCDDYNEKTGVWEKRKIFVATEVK
Assay: FRET cleavage assay of Abz-LPATG-Dap
Format: biochemical

- IC50: 7.24 µM
Compound: CC(=O)/C=C/c1ccc(O)c(O)c1 [OSC, osmundacetone]
